Series [1] relates to beets. Briefly: Beet cultivation in PCN-contaminated farmland after spraying around the roots (2007). The series is classed as in vivo. The note with it: cultivated 112 days; for Average weight of three beets other than the largest beet / Weight of the largest beet: PCN-contaminated farmland; for Sugar content: saccharimeter. The protocol: A farmland (Fujimi, Kutchan-cho, Hokkaido) contaminated by PCNs was examined in advance.
In that farmland, about […] beets per 1 m^2 were cultivated under the conditions that the width of a ridge was 69 cm and the distance between beets was 30 cm. […] The amount sprayed was changed to three levels, 1.8, 5.5, and 9.0 (g/m^2), and each chemical agent having the above-described amount was dissolved in 5 liters of water to obtain a spraying solution. Subsequently, the beets were cultivated for 112 days and the grown beets were harvested. The weight (kg) of the largest beet, the average weight (kg) of three beets other than the largest beet, and the sugar content (%) were measured. […] The sugar content (%) was measured with a saccharimeter (MASTER-M model 2313 available from ATAGO Co., Ltd.). […]
The mixed chemical agent contained 6% by mass of coconut oil fatty acid diethanolamide and 0.6% by mass of polyethylene glycol.

Series [2] concerns eggs of potato cyst nematodes. Briefly: Accelerated hatching effect of aqueous fatty acid dialkanolamide solution. The note with it: 1000-fold diluted aqueous solution; water 5.0%. The series is classed as in vivo. The method, then:
The accelerated hatching effect of an aqueous fatty acid dialkanolamide solution for the eggs of potato cyst nematodes was measured. […] It is believed that the fatty acid dialkanolamide has a function of breaking the eggshell of PCNs and thus the eggs of PCNs are forcedly hatched.

The subject of another series is PCNs. Description: PCN control at a site where a potato had been cultivated: nematode density after spraying. The series is classed as in vivo, potato cyst nematodes. Conditions: sprayed amount 9.0 g/m^2; soil had 2000 to 5000 PCNs per 20 g. The text has this: After the chemical agents were sprayed, all the cysts in 20 g of air-dried soil were gathered and the total number of eggs and second-generation larvae in the cysts was obtained.

In series [3] the test system is beets. Briefly: Beet cultivation after treatments of farmland sections (2008). The series is classed as in vivo. Conditions: for Average weight / Weight of the largest beet: sprayed once before planting; for growth promotion / enlargement of a beet (in words): results of beet cultivation of Table 8. The protocol: [table] The beets were cultivated under the conditions that the width of a ridge was 69 cm and the distance between beets was 30 cm. […] Then the beets were cultivated until Oct. 8, 2008 and harvested. After the stems and leaves of the harvested beets were removed, the weight of the beets was measured.

The test system of the next series is PCN. Description: PCN density in treated farmland sections (2008). The series is classed as in vivo, potato cyst nematodes.
A short description of series [4]: Polarity and solubility in water. The note with it: research conducted by the inventors. The series is classed as physicochemical. The text has this: Thus, the inventors of the present invention have focused on an ecological method. The ecological method is an indirect method in which the eggs of PCNs are forcedly hatched in some way, and then the hatched larvae are made to starve to death or destroyed using a typical agricultural chemical, which results in the prevention of the damage caused by the PCNs. It has been known for a long time that PCNs hatch when exposed to a substance secreted from the host plants, and there has been conducted a study for identifying a hatching-activating substance and isolating it from the secretory substance. Patent Document 1 discloses Solanoeclepin A as the hatching-activating substance.

Where [5] appears, read: 260 mg in 100 ml of water per single beet.
[6] abbreviates: 260 mg in 100 ml of water per two beets.

With `CC(=O)N(CCO)CCO` [Example 1, acetic acid diethanolamide], the “Average weight of three beets other than the largest beet” value came out at 1.63 kg in the series on beets [1] (sprayed amount 1.8 g/m^2, once); 1.68 kg with beets [1] (sprayed amount 5.5 g/m^2, once); 1.40 kg in the series on beets [1] (sprayed amount 9.0 g/m^2, once). Besides, the “Weight of the largest beet” value in the series with beets [1] (sprayed amount 1.8 g/m^2, once) is listed as 2.85 kg; in the series on beets [1] (sprayed amount 5.5 g/m^2, once), 2.53 kg; in the series on beets [1] (sprayed amount 9.0 g/m^2, once), 1.90 kg. The Sugar content stood at 19.80% in the series on beets [1] (sprayed amount 1.8 g/m^2, once); 20.10% with beets [1] (sprayed amount 5.5 g/m^2, once); 19.90% with beets [1] (sprayed amount 9.0 g/m^2, once).

On to `CCCCCCCCCC(=O)N(CCO)CCO` [Example 4, decanoic acid diethanolamide], for which, in the series with beets [1] (sprayed amount 1.8 g/m^2, once), the “Average weight of three beets other than the largest beet” value is on record as 1.86 kg, the “Weight of the largest beet” value was 2.20 kg and the Sugar content was 21.20%. For the same compound, in the series on beets [1] (sprayed amount 5.5 g/m^2, once), the “Average weight of three beets other than the largest beet” value stood at 1.92 kg, the “Weight of the largest beet” value is on record as 2.35 kg and the Sugar content amounted to 20.00%. Also, in the series with beets [1] (sprayed amount 9.0 g/m^2, once), the “Average weight of three beets other than the largest beet” value is reported as 1.62 kg, the “Weight of the largest beet” value amounted to 2.15 kg and the Sugar content was 23.40%. Besides, the hatching ratio in series [2] was 23.8%. Moreover, the “Nematode density (total number of eggs and second-generation larvae in the cysts)” value in the series with PCNs is 765 /20 g of air-dried soil.

With `CCCCCCCCCCCCCCCCCC(=O)N(CCO)CCO` [Example 7, octadecanoic acid diethanolamide], in the series on beets [1] (sprayed amount 1.8 g/m^2, once), the “Average weight of three beets other than the largest beet” value stood at 1.48 kg, the “Weight of the largest beet” value came out at 2.05 kg and the Sugar content was determined as 20.20%. In addition, in the series on beets [1] (sprayed amount 5.5 g/m^2, once), the “Average weight of three beets other than the largest beet” value stood at 1.65 kg, the “Weight of the largest beet” value amounted to 1.95 kg and the Sugar content came to 20.20%. In the series on beets [1] (sprayed amount 9.0 g/m^2, once), the “Average weight of three beets other than the largest beet” value was 1.85 kg, the “Weight of the largest beet” value was 2.30 kg and the Sugar content is recorded as 21.00%. The “Nematode density (total number of eggs and second-generation larvae in the cysts)” value in the series on PCNs is reported as 540 /20 g of air-dried soil.

Take `CCCCCC(=O)N(CCO)CCO` [Example 15, hexanoic acid diethanolamide]: in the series with beets [3] (setting [5]), the Average weight was 1.55 kg and the “Weight of the largest beet” value turned out to be 2.10 kg. The “growth promotion / enlargement of a beet (in words)” value (“growth promotion / enlargement” for short) with beets [3] is “achieves the enlargement of a beet”. The PCN density in the series on PCN (260 mg in 100 ml of water sprayed around the area of a single beet) was 600 /20 g of air-dried soil. For the same compound, in the series with PCN (section 2-1 compared with section 1-1), the “effect on PCN density (in words)” value is on record as “decreases PCN density”.

In the case of `COC1=C2C(C)(C)[C@H]3O[C@@]2(CC3=O)[C@@H](O)C2=C(C1=O)[C@@]13C(=O)[C@@]([C@@H]4C[C@H]4C(=O)O)(C[C@@H]1O)[C@]3(C)CC2` [Solanoeclepin A], in series [4], the solubility in water entry is listed as “poor solubility in water”.

As to `CC(=O)NCCO` [compound 13, acetic acid monoethanolamide], in the series on beets [3] (setting [6]), the Average weight is reported as 1.40 kg and the “Weight of the largest beet” value was 1.40 kg. The “growth promotion / enlargement” value with beets [3] is reported as “poor effect of growth promotion”.

Regarding `CCCCCCCCCC(=O)NCCO` [compound 14, decanoic acid monoethanolamide], in the series with beets [3] (setting [6]), the Average weight was determined as 1.10 kg and the “Weight of the largest beet” value came out at 1.80 kg. Further, the “growth promotion / enlargement” value in the series on beets [3] is “poor effect of growth promotion”.
